Measured values reported in patent publication US12692253B2, “Antimicrobial compounds and methods” (Curza Global, LLC, priority 2019, dated 2026).
Like-named read-outs stand apart in the source and are kept apart here.

How the values were obtained:
[1] = target: Rabbit Reticulocyte Lysate (eukaryotic protein synthesis); assay: Rabbit reticulocyte lysate luciferase assay (inhibition of eukaryotic protein synthesis); type: biochemical; details: read-out: Rabbit reticulocyte IC50 (μM/% inhib.)
In short: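 In vitro translation of luciferase control RNA in nuclease-treated rabbit reticulocyte lysate with amino acid mixture, compounds in 2-fold serial dilution, 90 minutes at 30° C. Luminescence read after luciferase reagent; % inhibition relative to water no-inhibitor controls, with no-RNA background wells.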

[2] = test system: E. coli S30 extract (bacterial protein synthesis); assay: E. coli S30 extract coupled transcription-translation luciferase assay (inhibition of bacterial protein synthesis); type: biochemical; details: read-out: S30 IC50 (μM/% inhib.)
In short: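 Coupled transcription-translation in E. coli S30 circular-DNA extract expressing luciferase from pBESTluc, with 8-point 2-fold compound dilutions; 1 hour at 37 °C, stopped at 4 °C. Luminescence read; % inhibition versus no-inhibitor wells, no-DNA wells as background.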

P. aeruginosa (Pa) = assay: Broth microdilution minimum inhibitory concentration (MIC), CLSI; type: cell-based; details: Pseudomonas aeruginosa, read-out: Pa MIC + bicarb
In short: (§1)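 Two-fold serial dilutions in CAMHB, optionally with sodium bicarbonate (6.25 or 25 mM final) or heat-inactivated human serum (0-50%), 8 concentrations, triplicate. Inoculum 5×10^4 CFU/well from log-phase cultures grown at 35±2 °C to 0.5 McFarland.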

E. faecalis (Ef) = assay: as above; type: cell-based; details: Enterococcus faecalis, read-out: Ef + bicarb MIC
In short: as §1

E. coli (Ec) = assay: as above; type: cell-based; details: Escherichia coli, read-out: E. coli + bicarb MIC
In short: as §1

A. baumannn (Ab) = assay: as above; type: cell-based; details: read-out: Ab + bicarb MIC
In short: as §1

S. aureus (Sa) = assay: as above; type: cell-based; details: Staphylococcus aureus, read-out: Sa + bicarb MIC
In short: as §1

[3] = class by IC50 or % inhibition @ 1 μM
[4] = growth medium supplemented with sodium bicarbonate
[5] = growth medium with sodium bicarbonate
[6] = A. baumannn, growth medium with sodium bicarbonate

SMILES | IC50 [1, 3] [µM] | IC50 [2, 3] [µM] | MIC (P. aeruginosa (Pa); [4]) [µg/mL] | MIC (E. faecalis (Ef); [4]) [µg/mL] | MIC (E. coli (Ec); [4]) [µg/mL] | MIC (A. baumannn (Ab); Acinetobacter baumannii) [µg/mL] | MIC (S. aureus (Sa); [4]) [µg/mL] | IC50 ([1]; % inhibition @ 1 μM) [µM] | IC50 ([2]; % inhibition @ 1 μM) [µM] | MIC (P. aeruginosa (Pa); [5]) [µg/mL] | MIC (E. faecalis (Ef); [5]) [µg/mL] | MIC (E. coli (Ec); [5]) [µg/mL] | MIC (A. baumannn (Ab); [6]) [µg/mL] | MIC (S. aureus (Sa); [5]) [µg/mL]
CC(C)(N)C(=O)N1CCN(C(=O)Nc2ccn(-c3ccc(CCN4CCC5(CCNC5)C4)cc3)c(=O)n2)CC1 (stereo not shown) [Compound 161] | ≥ 1 | < 0.5 | > 32 | 8 to 32 | < 8 | > 32 | < 8 | – | – | – | – | – | – | –
CC(Cc1ccc(-n2ccc(NC(=O)N3CCN(C(=O)C(C)(C)N)CC3)nc2=O)cc1)N1C[C@@H]2[C@@H](CN)[C@@H]2C1 (stereo partly shown) [Compound 122] | ≥ 1 | < 0.5 | < 8 | < 8 | < 8 | 8 to 32 | < 8 | – | – | – | – | – | – | –
CCC(N)(CC)C(=O)N1CCN(C(=O)Nc2ccn(-c3ccc(CN4C[C@@H]5[C@@H](N)[C@@H]5C4)cc3)c(=O)n2)CC1 [Compound 224] | – | – | – | – | – | – | – | ≥ 1 | < 0.5 | > 32 | < 8 | < 8 | > 32 | < 8
CNCC(=O)N1CCN(C(=O)Nc2ccn(-c3ccc(CC(C)N4C[C@@H]5[C@@H](CN)[C@@H]5C4)cc3)c(=O)n2)CC1 (stereo partly shown) [Compound 236] | – | – | – | – | – | – | – | ≥ 1 | ≥ 1 | > 32 | > 32 | < 8 | > 32 | 8 to 32
CC(C)(N)C(=O)N1CCN(C(=O)Nc2ccn(-c3ccc(CCN4CCC5(CCC5N)CC4)cc3)c(=O)n2)CC1 (stereo not shown) [Compound 95] | ≥ 1 | < 0.5 | > 32 | > 32 | < 8 | > 32 | < 8 | – | – | – | – | – | – | –
CC(Cc1ccc(-n2ccc(NC(=O)N3CCN(C(=O)CN)CC3)nc2=O)cc1)N1C[C@@H]2[C@@H](CN)[C@@H]2C1 (stereo partly shown) [Compound 227] | – | – | – | – | – | – | – | ≥ 1 | 0.5 to 1 | > 32 | < 8 | < 8 | > 32 | < 8
CC(Cc1ccc(-n2ccc(NC(=O)N3CCN(C(=O)C(C)(C)N)CC3)nc2=O)cc1C(F)(F)F)N1C[C@@H]2[C@@H](N)[C@@H]2C1 (stereo partly shown) [Compound 209] | – | – | – | – | – | – | – | ≥ 1 | ≥ 1 | > 32 | > 32 | > 32 | > 32 | > 32
CC(Cc1ccc(-n2ccc(NC(=O)N3CCN(C(=O)C(C)(C)N)CC3)nc2=O)cc1)N1CC2(CNC2)C1 (stereo not shown) [Compound 162] | ≥ 1 | ≥ 1 | > 32 | > 32 | 8 to 32 | > 32 | 8 to 32 | – | – | – | – | – | – | –
NCC1CCN(C(=O)Nc2ccn(-c3ccc(CN4C[C@@H]5[C@@H](N)[C@@H]5C4)cc3)c(=O)n2)CC1 [Compound 248] | – | – | – | – | – | – | – | ≥ 1 | ≥ 1 | > 32 | > 32 | > 32 | > 32 | > 32
NC[C@@H]1[C@H]2CN(CCc3ccc(-n4ccc(NC(=O)N5CC6(CC(N)C6)C5)nc4=O)cc3)C[C@@H]12 [Compound 149] | ≥ 1 | ≥ 1 | > 32 | > 32 | 8 to 32 | > 32 | 8 to 32 | – | – | – | – | – | – | –
CC(C)(N)C(=O)N1CCN(C(=O)Nc2ccn(-c3ccc(C(N)C(=O)N4C[C@@H]5[C@@H](N)[C@@H]5C4)cc3)c(=O)n2)CC1 (stereo partly shown) [Compound 105] | ≥ 1 | ≥ 1 | > 32 | > 32 | > 32 | > 32 | > 32 | – | – | – | – | – | – | –
CC(C)(N)C(=O)N1CCN(C(=O)Nc2ccn(-c3ccc(CCNC4CC5(CC(N)C5)C4)cc3)c(=O)n2)CC1 (stereo not shown) [Compound 177] | – | – | – | – | – | – | – | ≥ 1 | ≥ 1 | > 32 | 8 to 32 | < 8 | > 32 | < 8
CC(C)(N)C(=O)N1CCN(C(=O)Nc2ccn(-c3ccc(CN4CCC5(N)CC5C4)cc3)c(=O)n2)CC1 (stereo not shown) [Compound 13] | ≥ 1 | 0.5 to 1 | > 32 | < 8 | < 8 | > 32 | < 8 | – | – | – | – | – | – | –
